# Experimental data: patent US20140128606A1, “ANTIPRURITIC AGENT” (Toray Industries, Inc., priority 2011, published 2014)
# Where a name gives a salt, the structure may show the parent alone.
# Key:
# [1] = system: substance P-induced scratching behavior; assay: Inhibitory effect on substance P-induced scratching behavior in mice (MicroAct automatic detection); format: in vivo, mouse; settings: substance P 250 nmol/site; for Number of scratching behavior (means ± standard error): i.p., counted for 15 minutes
# Source text: Substance P-induced scratching behavior in mice which is an intractable pruritus model was induced by the method described in a known document (Togashi et al., European Journal of Pharmacology, 2002, Vol. 435, p. 259 and the like). Further, evaluation of the scratching behavior was objectively carried out by automatic detection using MicroAct (NeuroScience, Inc.) based on the method described in a known document (Hashimoto et al., Allergology International, 2004, Vol. 53, p. 349).
# More particularly, at least five days before the evaluation of drug effect, neodymium magnets (diameter: 1 mm, length: 3 mm) coated with Parafilm were subcutaneously inserted into the insteps of both hind limbs of 5 to 7 week-old male ICR mouse (Japan SLC, Inc.) under isoflurane anesthesia. One or two days before the day of the evaluation of drug effect, the hair of the rostral part of the back of the mouse was shaved with a hair clipper under isoflurane anesthesia. At least one hour before the start of the measurement of the number of scratching behavior, each mouse (6 to 8 weeks old) was individually placed in a chamber for measurement (diameter: 11 cm, height: 18 cm) for acclimation. After the acclimation, substance P (5 mmol/L) or phosphate-buffered saline (hereinafter referred to as PBS) as a solvent thereof was intradermally administered (0.05 mL/site) into the rostral part of the back, and the measurement of the number of scratching behavior was started immediately after the administration. The number of scratching behavior was recorded by amplifying electric current induced by the movement of the magnets inserted in the hind limbs in a round coil surrounding the chamber for measurement. The measurement was carried out under unattended environment, and the evaluation of the drug effect was carried out by using the number of scratching behavior occurred for 15 minutes after the start of the measurement as an index.
# A test compound or a solvent thereof was administered in an amount of 10 mL/kg 30 to 60 minutes before the start of the measurement of the number of scratching behavior. Varenicline tartrate (Tocris Bioscience) was dissolved in PBS and intraperitoneally administered in a dose of 1, 3 or 10 mg/kg 60 minutes before the start of the measurement of the number of scratching behavior. N-(1-azabicyclo[2.2.2]oct-3(R)-yl)-4-chlorobenzamide hydrochloride (PNU-282987) hydrate (Sigma-Aldrich) was dissolved in PBS and intraperitoneally administered in a dose of 0.3 or 1 mg/kg 45 minutes before the start of the measurement of the number of scratching behavior. The compound of Reference Example 1 was dissolved in PBS and intraperitoneally administered in a dose of 0.1 or 0.3 mg/kg 30 minutes before the start of the measurement of the number of scratching behavior. The compound of Reference Example 2 was dissolved in PBS and intraperitoneally administered in a dose of 1, 3, or 10 mg/kg 45 minutes before the start of the measurement of the number of scratching behavior. The compound of Reference Example 3 was dissolved in distilled water and orally administered in a dose of 1, 3, or 10 mg/kg 30 minutes before the start of the measurement of the number of scratching behavior. The compound of Reference Example 4 was dissolved in PBS and intraperitoneally administered in a dose of 1, 3, or 10 mg/kg 45 minutes before the start of the measurement of the number of scratching behavior. The compound of Reference Example 5 was dissolved in PBS and intraperitoneally administered in a dose of 1, 3, or 10 mg/kg 30 minutes before the start of the measurement of the number of scratching behavior. The compound of Reference Example 6 was dissolved in PBS and intraperitoneally administered in a dose of 1, 3, or 10 mg/kg, 30 minutes before the start of the measurement of the number of scratching behavior. […]
# [2] = system: substance P-induced scratching behavior; assay: Effect of nicotinic acetylcholine receptor antagonist (mecamylamine hydrochloride) on inhibition of substance P-induced scratching behavior by varenicline; format: in vivo, mouse; settings: varenicline tartrate 3 mg/kg + mecamylamine hydrochloride 3 mg/kg, i.p., 60 minutes before; substance P 250 nmol/site
# Experimental: The induction and measurement of the number of substance P-induced scratching behavior were carried out by the same method as described in Example 1.
# Varenicline tartrate (0.3 mg/mL, Tocris Bioscience), mecamylamine hydrochloride (0.3 mg/mL, Tocris Bioscience), a mixed solution of varenicline tartrate and mecamylamine hydrochloride (both 0.3 mg/mL), or PBS which was a solvent thereof, was intraperitoneally administered in an amount of 10 mL/kg 60 minutes before the start of the measurement of the number of scratching behavior.
# With regard to statistical processing, Student's t-test was performed when variances were homogeneity by F-test, and Aspin-Welch test was performed when variances were heterogeneity. A level of significance was set to 5% (two-tailed).
# The vertical axis indicates the number of scratching behavior occurred for 15 minutes (mean±standard error, n=5 to 8). […]
smiles,measurement,setting,value
"c1cnc2cc3c(cc2n1)C1CNCC3C1 [Varenicline tartrate, 7,8,9,10-tetrahydro-6H-6,10-methanopyrazino[2,3-h][3]benzazepine, reference compound]",inhibition at 1 mg/kg,"[1]; Mus musculus, ip, 1 mg/kg, read-out: Inhibition rate",15%
same,inhibition at 3 mg/kg,"[1]; Mus musculus, ip, 3 mg/kg, read-out: Inhibition rate",64%
same,inhibition at 10 mg/kg,"[1]; Mus musculus, ip, 10 mg/kg, read-out: Inhibition rate",101%
same,Number of scratching behavior (means ± standard error),[1]; 1 mg/kg,103 ± 19
same,Number of scratching behavior (means ± standard error),[1]; 3 mg/kg,54 ± 7
same,Number of scratching behavior (means ± standard error),[1]; 10 mg/kg,17 ± 3
same,Effect of inhibiting the substance P-induced scratching behavior when used in combination with mecamylamine hydrochloride,[2],completely disappeared
